# Laboratory results as given in BindingDB's records for doi:10.1021/jm00163a043 (Michigan Cancer Foundation, 1990).
# Molecular target: thymidine kinase (Oryctolagus cuniculus)
# Assay: Inhibitory affect against rabbit thymus thymidine kinase
row,Ki,SMILES
1,54 µM,Cc1cn([C@H]2C[C@H](N=[N+]=[N-])[C@@H](CO)O2)c(=O)[nH]c1=S
2,1690 µM,Cc1cn([C@H]2C=C[C@@H](CO)O2)c(=O)[nH]c1=S
3,1600 µM,Cc1cn([C@H]2CC[C@@H](CO)O2)c(=O)[nH]c1=S

# Molecular target: thymidine kinase (Oryctolagus cuniculus)
# Assay: as above
# Remark: another data set of the same source
row,Ki,SMILES
1,1690 µM,O=c1[nH]c(=S)ccn1[C@H]1C=C[C@@H](CO)O1
2,1280 µM,O=c1[nH]c(=S)ccn1[C@H]1CC[C@@H](CO)O1
3,445 µM,O=c1ccn([C@H]2C=C[C@@H](CO)O2)c(=O)[nH]1
